Measured values published in patent US10300096B2, “Use of adenoviruses and nucleic acids that code for said viruses” (priority 2003, dated 2019).

How the values were obtained:
Assay type in all cases: cell-based
U373 tumour cells [1] = experiment: Replication of dl520 after addition of Irinotecan, Southern blot; details: 5 μM Irinotecan 24 hours before infection with 10 pfu/cell dl520, compared to untreated control
Method: In order to determine the effect of Irinotecan on adenoviral replication 10^6 U373 tumour cells were plated in 10 cm^2 Petri dishes. In a first reaction 5 μM Irinotecan was added after 24 hours. After another 24 hours the cells were infected with 10 pfu/cell dl520. After incubation of 3 days without Irinotecan DNA was isolated in accordance with the procedure described in example 10.
In a parallel reaction the thus prepared U373-cells were not pre-incubated with Irinotecan. After 48 hours of cultivating the cells without Irinotecan, they were infected with 10 pfu/cell dl520 and subsequently incubated without Irinotecan for another 3 days. DNA was isolated as described above.
Subsequently […] were digested with restriction enzyme Kpn I and a Southern Blot analysis performed. A part of the adenoviral genome (position: 22734-24235) generated by means of PCR was used as a probe.

U373 tumour cells [2] = experiment: Replication of dl520 after administration of Trichostatin A, Southern blot; details: 0.25, 0.5 and 0.75 μM Trichostatin A 24 hours before infection with 10 pfu dl520/cell, compared to untreated controls
Method: In order to test the effect of Trichostatin A on adenoviral replication, 10^6 U373 tumour cells were plated in 10 cm^2 Petri dishes. After 24 hours 0, 0.25, 0.5 and 0.75 μM Trichostatin A was added. After another 24 hours the cells were infected with 10 pfu dl520/cell.
After 3 days of incubation in medium without Trichostatin DNA was isolated. Subsequently 2 μg DNA were digested with restriction enzyme Kpn I and a Southern Blot analysis performed. A part of the adenoviral genome (position: 22734-24235) generated by means of PCR was used as a probe.

[3] = tested on: coxsackievirus-adenovirus-receptor (CAR) on U373 cells; experiment: CAR expression by Facs-analysis; details: 1 μM Trichostatin for 24 hours; 11.3% without treatment
Method: 200,000 U373 cells were plated in 6 well plates. After 24 hours the cells were cultivated with 1 μM Trichostatin for 24 hours. After another 24 hours the cells were isolated. Subsequently, analysis of CAR expression was performed according to a standard protocol using Facs-analysis and the primary antibody anti-CAR clone RmcB from the company Upstate, and a rabbit anti-mouse FITC as secondary antibody (company DAKO).

HeLa cells = experiment: Oncolytic assay with daunorubicine and dl520, crystal violet; details: 40 ng/ml daunorubicine 3 hours before infection
Method: (§1) In the practising of the oncolytic assays the following procedure was followed: 200,000 cells (HeLa and U2OS, respectively) were plated into each well of a 6 well plate. On the next day 40 ng/ml (final concentration) of daunorubicine were added. After 3 hours of incubation the cells were infected with 10 and 30 pfu dl520/cell, respectively. Subsequently, the cells were incubated in cytostatic free medium. After 3-5 days the cells were stained using crystal violet.

U2OS cells = experiment: as above; details: 40 ng/ml daunorubicine 3 hours before infection
Method: as §1

CCc1c2c(nc3ccc(OC(=O)N4CCC(N5CCCCC5)CC4)cc13)-c1cc3c(c(=O)n1C2)COC(=O)[C@]3(O)CC [Irinotecan]
adenoviral replication (dl520, Southern blot) (U373 tumour cells [1]): significantly increased

CC(/C=C/C(=O)NO)=C\[C@@H](C)C(=O)c1ccc(N(C)C)cc1 [Trichostatin A]
viral replication (dl520, Southern blot) (U373 tumour cells [2]): significantly increased
CAR-positive cells [3]: 56.2%

COc1cccc2c1C(=O)c1c(O)c3c(c(O)c1C2=O)C[C@@](O)(C(C)=O)C[C@@H]3O[C@H]1C[C@H](N)[C@H](O)[C@H](C)O1 [daunorubicine]
effect on replication of dl520 (HeLa cells): induces the replication of dl520
effect on replication of dl520 (U2OS cells): induces the replication of dl520
